In patent US5623080A, “Fluorone and pyronin Y derivatives” (Spectra Group Limited, Inc., priority 1995, dated 1997):

Experiment: absorption wavelength (λmax) and extinction (ε)
Type: physicochemical
Conditions: for λmax in EtOH (first value) / ε (first value) / λmax in EtOH / ε: Table 1, EtOH; for ε (first value): at first λmax, in M-1cm-1 (unit assumed); for ε: at second λmax

Question: With 5,7-diiodo-3-methoxy-6-fluorone [DIMF] as the compound, how does the “λmax in EtOH (first value)” value read?
Answer: The value was 470.

Question: And the “ε (first value)” value?
Answer: The value was 23,500.

Question: With `CCCCOc1ccc2c(C#N)c3cc(I)c(=O)c(I)c-3oc2c1` [Compound 7, 9-cyano-5,7-diiodo-3-butoxy-6-fluoorone] as the compound, how does the “λmax in EtOH (first value)” value read?
Answer: Its value is 600.

Question: Which “λmax in EtOH” value does the source give for `N#Cc1c2cc(Br)c(=O)c(Br)c-2oc2c(Br)c(O)c(Br)cc12` [Compound 14, 9-cyano-3-hydroxy-2,4,5,7-tetrabromo-6-fluorone] here?
Answer: The value was 576.

Question: And the “λmax in EtOH (first value)” value?
Answer: The value was 626.

Question: And the “ε (first value)” value?
Answer: The value was 51400.

Question: What about the ε of the same compound?
Answer: Its ε is 24500 M⁻¹ cm⁻¹.

Question: With `CCCCCCCCc1cc2c(C#N)c3cc(I)c(=O)c(I)c-3oc2c(I)c1O` [Compound 20, 9-cyano-3-hydroxy-4,5,7-triiodo-2-octyl-6-fluorone] as the compound, how does the “λmax in EtOH (first value)” value read?
Answer: The value was 630.

Question: And the “ε (first value)” value?
Answer: Its value is 40,000.

Question: And the absorption wavelength (comparison)?
Answer: Its absorption wavelength is 630 nm.

Question: And the λmax (in EtOH)?
Answer: Its λmax is 630 nm.

Question: With `CC(C)(C)c1cc2cc3cc(C(C)(C)C)c(=O)c(I)c-3oc2c(I)c1O` [Compound 26, 2,7-di-t-butyl-4,5-diiodo-3-hydroxy-6-fluorone] as the compound, how does the “λmax in EtOH (first value)” value read?
Answer: Its value is 532.

Question: What about the “ε (first value)” value of the same compound?
Answer: Its value is 90800.

Question: With `CC(C)(C)c1cc2c(C#N)c3cc(C(C)(C)C)c(=O)c(I)c-3oc2c(I)c1O` [Compound 27, 9-cyano-2,7-di-t-butyl-4,5-diiodo-3-hydroxy-6-fluorone] as the compound, how does the “λmax in EtOH” value read?
Answer: Its value is 582.

Question: And the “λmax in EtOH (first value)” value?
Answer: Its value is 636.

Question: What about the “ε (first value)” value of the same compound?
Answer: The value was 68300.

Question: What about the ε of the same compound?
Answer: Its ε is 33600 M⁻¹ cm⁻¹.

Question: With `O=c1ccc2cc3ccc(O)cc3sc-2c1` [Compound 29, 3-hydroxy-6-thiafluorone] as the compound, how does the “λmax in EtOH (first value)” value read?
Answer: The value was 524.

Question: Which results are given for `CC(C)(C)c1cc2cc3cc(C(C)(C)C)c(=O)cc-3oc2cc1O` [Compound 30, 2,7-di-t-butyl-3-hydroxy-6-fluorone]?
Answer: λmax in EtOH (first value): 518; ε (first value): 101000

Question: Which results are given for `CC(C)(C)c1cc2c(C#N)c3cc(C(C)(C)C)c(=O)cc-3oc2cc1O` [Compound 31, 9-cyano-2,7-di-t-butyl-3-hydroxy-6-fluorone]?
Answer: λmax in EtOH: 564; λmax in EtOH (first value): 614; ε (first value): 47400; ε: 23200 M⁻¹ cm⁻¹

Question: For `O=C(O)CCCc1cc2cc3ccc(O)cc3oc-2cc1=O` [Compound 37a, 3-hydroxy-7-butyric acid-6-fluorone], which “λmax in EtOH (first value)” value is on record?
Answer: Its value is 512.

Question: What does the source list for `N#Cc1c2ccc(=O)cc-2oc2cc(O)c(CCCC(=O)O)cc12` [Compound 37b, 9-cyano-3-hydroxy-7-butyric acid-6-fluorone]?
Answer: λmax in EtOH (first value): 596; ε (first value): 74,000

Question: Which “λmax in EtOH (first value)” value does the source give for `Cc1ccc(-n2c3cc(=N)ccc-3cc3ccc(N)cc32)cc1` [N.phi.CH3 NH2 /NH2 + H H H H H] here?
Answer: Its value is 472.

Question: Which “λmax in EtOH (first value)” value does the source give for `C=CC(=O)OCCCCCCOc1ccc2cc3cc(I)c(=O)c(I)c-3oc2c1` [O O/O(CH2)6 OCOCH=CH2 H I H I H] here?
Answer: Its value is 472.

Question: Which “λmax in EtOH” value does the source give for `N#Cc1c2ccc(=O)cc-2oc2cc(O)ccc12` [O O/O^- CN H H H H, 9-Cyano-3-hydroxy-6-fluorone] here?
Answer: The value was 548.

Question: What about the “λmax in EtOH (first value)” value of the same compound?
Answer: Its value is 594.

Question: And the “ε (first value)” value?
Answer: Its value is 50300.

Question: And the ε?
Answer: The ε was 24700 M⁻¹ cm⁻¹.

Question: Which “λmax in EtOH (first value)” value does the source give for `CCOC(=O)CCCc1cc2cc3ccc(=O)cc-3oc2cc1O` [O O/O^- H H H H (CH2)3 COOEt] here?
Answer: The value was 510.

Question: Which results are given for `CCCCCCCCc1cc2cc3cc(I)c(=O)c(I)c-3oc2c(I)c1O` [O O/O^- H I H I (CH2)7 CH3, 3-hydroxy-4,5,7-triiodo-2-octyl-6-fluorone]?
Answer: λmax in EtOH (first value): 534; ε (first value): 92,600

Question: For `N#Cc1c2ccc(=O)cc-2sc2cc(O)ccc12` [S O/O^- CN H H H H], which “λmax in EtOH (first value)” value is on record?
Answer: Its value is 610.
